In PMC6691761, “Potential multifunctional agents with anti-hepatoma and anti-inflammation properties by inhibiting NF-кB activation” (Journal of Enzyme Inhibition and Medicinal Chemistry, 2019):

What was measured:
[1] = tested on: human acute mononuclear granulocyte leukaemia (THP-1); assay: Cytotoxicity, MTT assay, THP-1; type: cell-based; conditions: for IC50: MTT, 24 h
Source text: (§1) Compounds 83–102 were screened against human neoplastic cell lines, such as human breast cancer cells (MCF-7), human colon cancer cells (HCT116), human lung carcinoma cells (A549), human gastric adenocarcinoma cells (SGC7901), human liver hepatocellular carcinoma cell line (HepG2), human cervical carcinoma cells (HeLa), human acute mononuclear granulocyte leukaemia (THP-1), and human normal hepatic cell line (LO2) using modified MTT assay. All the cells were obtained from the American Type Culture Collection (ATCC, Manassas, VA). The cells were cultured in DMEM or 1640. Positive controls (Doxorubicin (DOX) and Curcumin) and BAPs were initially dissolved in dimethyl sulphoxide (DMSO). Experimental concentration of DMSO was always 0.1% (v/v). The concentrations of BAPs and positive controls were 50, 20, 10, 5, 2.5, 1, 0.5, 0.1, 0.05, and 0.01 μg/mL.
(§2) The cells (1 × 10^4 cells/well) were seeded in a 96-well plate and incubated for 24 h. Cells treated with serial concentrations of drugs were incubated for another 24 h. After the media removed, 20 μL of MTT (5 mg/mL) solution was added and incubated for 4 h at 37 °C. The MTT solution was removed and then 150 μL of DMSO was added. The optical density was measured with a multi-well plate reader (TECAN, Mӓnnedorf, Switzerland) at 570 nm. The results are expressed as a decrease in the cell viability (%) in comparison to untreated controls. The concentration of each compound was examined in triplicate, and the IC50 values are expressed in Table 1.

[2] = tested on: TNF-α production in LPS-stimulated RAW264.7 cells; assay: TNF-α production in LPS-stimulated RAW264.7 cells, ELISA; type: cell-based; conditions: BAPs 6.0 μM, PDTC 30 μM, LPS 1.0 μg/mL
Experimental: The anti-inflammatory activities of BAPs were evaluated by ELISA. After pretreated with 30 μM of positive drug pyrrolidinedithiocarbamate (PDTC) or 6 μM of BAPs for 2 h, cells were treated with LPS (1.0 μg/mL) for 22 h. The culture media were collected and centrifuged for detecting the expression levels of TNF-α by an ELISA kit (eBioScience, San Diego, CA).
TNF-α is a common pro-inflammatory factors that can be produced by LPS-stimulated RAW264.7 macrophage[14]^,[24]. In order to evaluate the anti-inflammatory activity of BAPs, the effect of BAPs on TNF-α production in LPS-stimulated RAW264.7 cells was detected by ELISA. […] Only 92 presented slightly lower expression of TNF-α secretion (about 57%).

[3] = tested on: Bcl-2 expression in HepG2 cells; assay: Western blot, Bcl-2 expression in HepG2 cells; type: cell-based, human; conditions: HepG2, 1.0, 2.0, and 4.0 μM
Experimental: The HepG2 cells were treated with BAP 96 at different concentrations (1.0, 2.0, and 4.0 µM) for 3 h, and washed twice by PBS. The cells were lysed and the extracted proteins of cell lysates were separated by 10% SDS-PAGE gel electrophoresis, then transferred onto polyvinylidene fluorides membranes. The membranes were probed with antibodies and visualized using an enhanced chemiluminescence (ECL) detection kit.

[4] = tested on: human liver hepatocellular carcinoma cell line (HepG2); assay: Cytotoxicity, MTT assay, HepG2; type: cell-based; conditions: for IC50: MTT, 24 h
Source text: as §1, §2

[5] = tested on: NF-κB p65 nuclear translocation in LPS-stimulated RAW264.7 cells; assay: NF-κB p65 nuclear translocation, immunofluorescence, RAW264.7; type: cell-based; conditions: RAW264.7, LPS 1.0 μg/mL, 4.0 μM
Experimental: RAW264.7 cells were pretreated in 96-well plates with LPS (1 μg/mL) for 15 min and then treated with 96 for 2 h. Similarly, HepG2 cells were pretreated with TNF-α (10 ng/mL) for 15 min and then treated with 96 for 4 h. The cells were fixed with 2% paraformaldehyde for 15 min at 37 °C and permeabilized using 0.1% Triton X-100 for 10 min at RT. After blockage with 3% BSA for 30 min, the cells were incubated with anti-NF-κB p65 antibody (NOVUS BIOLOGICALS, Colorado, USA) at 4 °C overnight. After washing, the anti-mouse Alexa488-conjugated secondary antibody (Jackson Immuno Research, West Grove, PA) was incubated for 30 min at RT. After washed with PBS, the cells were incubated in 4-6-diamidino-2-phenyindole (DAPI; Sigma, St. Louis, MO) for 15 min in the dark at RT. The cell images were simultaneously viewed using a microscopy system in High Throughput Screen (Operetta, PerkinElmer, Waltham, MA).

[6] = tested on: C-caspase-3 expression in HepG2 xenografts; assay: Western blot, C-caspase-3 in HepG2 xenografts; type: in vivo, Balb/c nude mice; conditions: 0.2, 1.0 and 5.0 mg/kg
Experimental: (§3) The HepG2 cells xenografts were established using the Balb/c nude mice (female, 7-week-old, 17–19 g, n = 30) (Shanghai Laboratory Animal Center, Shanghai Shi, China) were used to investigate the anti-hepatoma effect of 96. Animal experiments were reviewed and approved by the Binzhou Medical University Experimental Animal Committee. Briefly, HepG2 cells (1 × 10^7/0.2 ml PBS/mouse) were inoculated subcutaneously. Three days after the inoculation, the mice were randomly divided into five groups: the saline treated group (Control), 96 (0.2 mg/kg) group, 96 (1.0 mg/kg) treated group, 96 (5.0 mg/kg) treated group, and DOX (1.0 mg/kg) treated group. 96 were dissolved in saline containing 1% of DMSO and administered intraperitoneally every 2 d for 20 days. DOX was also administered intraperitoneally every 2 d for 20 d. The body weight and HepG2 xenografts volumes were recorded from the day of treatment, and xenografts volumes were calculated using the equation: tumour volume = length×(width)[2]×π/6. At the end of the experiment, mice were sacrificed and the xenografts were obtained for western blotting, HE staining and immunohistochemistry staining.
Western blotting was performed to detect the expression of Bcl-2, Bax and C-caspase-3 in HepG2 xenografts. Fresh HepG2 xenografts tissues were lysed and the obtained proteins were processed as the protein obtained from the HepG2 cells.

[7] = tested on: HepG2 xenografts; assay: HE staining of HepG2 xenografts; type: in vivo, Balb/c nude mice
Experimental: as §3
The HepG2 xenografts tissues were embedded using the paraffin, and sectioned for HE staining and immunohistochemistry staining. HE staining was performed routinely. The immunohistochemistry staining carried out as following. Briefly, the processed sections were incubated with the primary antibodies: Bcl-2 and TNF-α (NOVUS BIOLOGICALS) at 4 °C overnight. After washing, the anti-rabbit peroxidase-conjugated secondary antibody (Sigma-Aldrich, St. Louis, MO) was incubated for 1 h at RT. After washing with PBS, the cells were visualized using the 3,3'-diaminobenzidine (DAB) solution under the light microscope. The cell images were taken using a light microscopy (Olympus, Tokyo, Japan).

[8] = quotient of IC50 towards LO2 cells

## CN1CC(=Cc2cccc(N=Cc3cc(Br)ccc3O)c2)C(=O)C(=Cc2ccccc2F)C1 [Compound 96]
[1]; Homo sapiens, THP-1, 24 h
  IC50: < 2000 nM
[1]
  IC50: 1100 ± 600 nM
[1]; [8]
  THP-1 SI (selectivity index): 18.1
[2]
  Inhibition of TNF-α secretion compared with PDTC (in words): strongest inhibitory effect
  TNF-α secretion: 45%
[3]
  Expression of anti-apoptotic protein Bcl-2: decreased in a dose-dependent manner
[4]; Homo sapiens, HepG2, 24 h
  IC50: < 2000 nM
[4]
  IC50: 1000 ± 400 nM
[4]; [8]
  HepG2 SI (selectivity index): 19.9
[5]
  p65 nuclear translocation: prevented the p65 nuclear translocation
[6]
  Expression of C-caspase-3 in HepG2 xenografts: significantly increased in a dose-dependent manner
[7]; 96 5.0 mg/kg, DOX 1.0 mg/kg
  Fracted cells, HE staining: a plenty of fracted cells
[7]; HepG2 xenografts, versus model group
  Histopathological change of cell nucleus, HE staining: made the HepG2 cell nucleus wrinkled
